Patent US20230339886A1 (University of Florida Research Foundation, Incorporated, priority 2020, published 2023)

What was measured:
[1] = molecular target: T1, REV-ERBβ (Homo sapiens, UniProt Q14995); assay: TR-FRET corepressor interaction assay (REV-ERBβ, FITC-SMRT peptide); assay type: biochemical; settings: Table 2, read-out: REVERBβ agonism (EC50 class, FRET assay)
T1 construct: 6×Histag-REV-ERBα LBD (human; residues 381-579); made in house; host or cells: Escherichia coli
T1 sequence (Q14995 381-579): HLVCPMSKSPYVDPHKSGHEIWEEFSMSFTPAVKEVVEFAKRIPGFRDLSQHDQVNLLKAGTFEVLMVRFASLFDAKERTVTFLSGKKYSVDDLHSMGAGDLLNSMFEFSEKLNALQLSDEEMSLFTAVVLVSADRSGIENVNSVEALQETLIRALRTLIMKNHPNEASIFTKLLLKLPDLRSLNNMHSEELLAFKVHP
Experimental: TR-FRET corepressor interaction assay. The time-resolved fluorescence resonance energy transfer (TR-FRET) assay was performed in black low-volume 384-well plates (Greiner). […] Ligand stocks were prepared via serial dilution in DMSO, added to wells in triplicate, and plates were incubated at 4° C. for 2 h and read using a BioTek Synergy Neo multimode plate reader. The Tb donor was excited at 340 nm; its fluorescence emission was monitored at 495 nm, and the acceptor FITC emission was measured at 520 nm; and the TR-FRET ratio was calculated as the signal at 520 nm divided by the signal at 495 nm. Data were plotted using GraphPad Prism as TR-FRET ratio vs. ligand concentration and fit to sigmoidal dose response curve equation.
Exemplary compounds of the present disclosure were assayed as described above to assess agonism of REV-ERBα and REV-ERBβ.

[2] = molecular target: T2, REV-ERBα LBD (human; residues 281-614 Δ324-422) (Homo sapiens, UniProt P20393, DEL324-422); assay: TR-FRET corepressor interaction assay (REV-ERBα LBD, FITC-SMRT peptide); assay type: biochemical; settings: Table 2, read-out: REVERBα agonism (EC50 class, FRET assay)
T2 construct: 6×Histag-REV-ERBα LBD (human; residues 281-614 Δ324-422); made in house; host or cells: Escherichia coli
T2 sequence (P20393 with tags, fused parts or gaps DEL324-422): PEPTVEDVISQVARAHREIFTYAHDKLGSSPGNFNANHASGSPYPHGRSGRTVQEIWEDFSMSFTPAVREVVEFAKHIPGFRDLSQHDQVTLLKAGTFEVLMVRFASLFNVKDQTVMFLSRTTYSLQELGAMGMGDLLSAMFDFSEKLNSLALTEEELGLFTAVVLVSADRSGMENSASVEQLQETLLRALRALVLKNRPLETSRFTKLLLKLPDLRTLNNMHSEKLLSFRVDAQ
T2 sequence (Q9Y618 2335-2356 partner limits assumed): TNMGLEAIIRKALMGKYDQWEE
Procedure, shortened: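 Compound serial dilutions (in DMSO, triplicate) incubated 2 h at 4 °C; Tb donor excited at 340 nm, emission read at 495 nm and FITC acceptor at 520 nm. TR-FRET ratio (520/495 nm) plotted against ligand concentration and fitted to a sigmoidal dose-response curve.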

SMILES: CC(C)Cc1cn(CCNS(=O)(=O)C2CC2)c2ncc(-c3ccncc3)cc12 [Example 365, N-(2-(3-isobutyl-5-(pyridin-4-yl)-1H-pyrrolo[2,3-b]pyridin-1-yl)ethyl)cyclopropanesulfonamide]
- EC50 [1]: > 3000 nM
- EC50 [2]: < 500 nM

SMILES: CC(C)Cn1cc(CCNS(=O)(=O)N(C)C)c2ccc(-c3ccccn3)cc21 [Compound 31, dimethyl({2-[1-(2-methylpropyl)-6-(pyridin-2-yl)-1H-indol-3-yl]ethyl}sulfamoyl)amine]
- EC50 [1]: > 3000 nM
- EC50 [2]: 500 to 3000 nM

SMILES: CC(C)Cn1cc(CCNS(=O)(=O)CC(C)C)c2ccc(-c3ccncc3)cc21 [Compound 12]
- EC50 [1]: > 3000 nM
- EC50 [2]: < 500 nM

SMILES: CC(C)(C)Cc1cn(CCNS(=O)(=O)C2CC2)c2ccc(-c3ccc(C(F)(F)F)cc3Cl)cc12 [Example 300, N-(2-(5-(2-chloro-4-(trifluoromethyl)phenyl)-3-neopentyl-1H-indol-1-yl)ethyl) cyclopropanesulfonamide]
- EC50 [1]: 500 to 3000 nM
- EC50 [2]: < 500 nM

SMILES: CC(C)CCn1cc(CCNS(=O)(=O)N(C)C)c2ccc(-c3ccncc3)cc21 [Compound 231]
- EC50 [1]: 500 to 3000 nM
- EC50 [2]: < 500 nM

SMILES: CN(C)S(=O)(=O)N[C@@H](c1cn(CC(C)(C)C)c2cc(-c3ccccc3C(F)(F)F)ccc12)C(F)(F)F [Example 323, {[(1S)-1-[1-(2,2-dimethylpropyl)-6-[2-(trifluoromethyl)phenyl]-1H-indol-3-yl]-2,2,2-trifluoroethyl]sulfamoyl}dimethylamine]
- EC50 [1]: > 3000 nM
- EC50 [2]: < 500 nM

SMILES: CC(C)Cn1cc(CCNS(=O)(=O)N(C)C)c2ccc(-c3cccc4cnccc34)cc21 [Compound 38, ({2-[6-(isoquinolin-5-yl)-1-(2-methylpropyl)-1H-indol-3-yl]ethyl}sulfamoyl)dimethylamine]
- EC50 [1]: > 3000 nM
- EC50 [2]: > 3000 nM

SMILES: CC(C)(C)Cn1cc([C@H](NS(=O)(=O)C2CC2)C(F)(F)F)c2cc(F)c(-c3ccccc3Cl)cc21 [Example 331, (S)—N-(1-(6-(2-chlorophenyl)-5-fluoro-1-neopentyl-1H-indol-3-yl)-2,2,2-trifluoroethyl)cyclopropanesulfonamide]
- EC50 [1]: 500 to 3000 nM
- EC50 [2]: < 500 nM

SMILES: Cc1ccc2c([C@H](NS(=O)(=O)C3CC3)C(F)(F)F)cn(CC(C)C)c2c1 [Example 309, (S)—N-(2,2,2-trifluoro-1-(1-isobutyl-6-methyl-1H-indol-3-yl)ethyl)cyclopropanesulfonamide]
- EC50 [1]: < 500 nM
- EC50 [2]: < 500 nM

SMILES: CCc1ccc2c(CCNS(=O)(=O)N(C)C)cn(CC(C)C)c2c1 [Compound 100, ({2-[6-ethyl-1-(2-methylpropyl)-1H-indol-3-yl]ethyl}sulfamoyl)dimethylamine]
- EC50 [1]: > 3000 nM
- EC50 [2]: < 500 nM

SMILES: CC(C)Cn1cc([C@H](NS(=O)(=O)N(C)C)C(F)(F)F)c2cc(F)c(C3CC3)cc21 [Example 329, {[(1S)-1-[6-cyclopropyl-5-fluoro-1-(2-methylpropyl)-1H-indol-3-yl]-2,2,2-trifluoroethyl]sulfamoyl}dimethylamine]
- EC50 [1]: > 3000 nM
- EC50 [2]: < 500 nM

SMILES: CC(C)(C)Cn1cc(CNS(=O)(=O)C2CC2)c2cc(F)c(-c3ccccc3C(F)(F)F)cc21 [Compound 278]
- EC50 [1]: 500 to 3000 nM
- EC50 [2]: < 500 nM

SMILES: CC(C)Cn1cc(CCNS(=O)(=O)N(C)C)c2ccc(C3CCCC3)cc21 [Compound 99, ({2-[6-cyclopentyl-1-(2-methylpropyl)-1H-indol-3-yl]ethyl}sulfamoyl)dimethylamine]
- EC50 [1]: 500 to 3000 nM
- EC50 [2]: < 500 nM

SMILES: CC(C)Cn1cc(CCNS(=O)(=O)N(C)C)c2ccc(-c3cnn(C)c3)cc21 [Compound 33, dimethyl({2-[6-(1-methyl-1H-pyrazol-4-yl)-1-(2-methylpropyl)-1H-indol-3-yl]ethyl}sulfamoyl)amine]
- EC50 [1]: > 3000 nM
- EC50 [2]: > 3000 nM

SMILES: CC(C)Cn1cc(CCNS(=O)(=O)N(C)C)c2ccc(-c3ccnn3C)cc21 [Compound 34, dimethyl({2-[6-(1-methyl-1H-pyrazol-5-yl)-1-(2-methylpropyl)-1H-indol-3-yl]ethyl}sulfamoyl)amine]
- EC50 [1]: > 3000 nM
- EC50 [2]: < 500 nM

SMILES: CCC(C)n1cc(CCNS(=O)(=O)N(C)C)c2ccc(-c3ccncc3)cc21 (centres unmarked) [Compound 230]
- EC50 [1]: 500 to 3000 nM
- EC50 [2]: < 500 nM

SMILES: CC(C)Cn1cc(CCNS(=O)(=O)N(C)C)c2cccc(Br)c21 [Example 137, ({2-[7-bromo-1-(2-methylpropyl)-1H-indol-3-yl]ethyl}sulfamoyl)dimethylamine]
- EC50 [1]: > 3000 nM
- EC50 [2]: 500 to 3000 nM

SMILES: CC(C)Cn1cc(CCNS(=O)(=O)N(C)C)c2ccc(-c3ccnc(N4CCOCC4)c3)cc21 [Compound 36, dimethyl({2-[1-(2-methylpropyl)-6-[2-(morpholin-4-yl)pyridin-4-yl]-1H-indol-3-yl]ethyl}sulfamoyl)amine]
- EC50 [1]: > 3000 nM
- EC50 [2]: > 3000 nM

SMILES: CC(C)Cn1cc(CCNS(=O)(=O)N(C)C)c2ccc(C3CCCCC3)cc21 [Compound 16]
- EC50 [1]: 500 to 3000 nM
- EC50 [2]: < 500 nM

SMILES: CC(C)Cn1cc(CCNS(=O)(=O)N(C)C)c2ccc(-c3cccc4ccccc34)cc21 [Compound 39, dimethyl({2-[1-(2-methylpropyl)-6-(naphthalen-1-yl)-1H-indol-3-yl]ethyl}sulfamoyl)amine]
- EC50 [1]: > 3000 nM
- EC50 [2]: < 500 nM

SMILES: CC(C)C(=O)n1cc(C(C)NS(=O)(=O)N(C)C)c2ccc(-c3ccccc3C(F)(F)F)cc21 (centres unmarked) [Example 195, 1-(3-{1-[(dimethylsulfamoyl)amino]ethyl}-6-[2-(trifluoromethyl)phenyl]-1H-indol-1-yl)-2-methylpropan-1-one]
- EC50 [1]: 500 to 3000 nM
- EC50 [2]: < 500 nM

SMILES: CC(C)Cn1cc(CCNS(=O)(=O)N(C)C)c2ccc(-c3ncccn3)cc21 [Compound 32, dimethyl({2-[1-(2-methylpropyl)-6-(pyrimidin-2-yl)-1H-indol-3-yl]ethyl}sulfamoyl)amine]
- EC50 [1]: > 3000 nM
- EC50 [2]: 500 to 3000 nM

SMILES: CC(C)Cn1cc(CCNS(=O)(=O)N(C)C)c2ccc(-c3ccnc(N)c3)cc21 [Compound 21]
- EC50 [1]: > 3000 nM
- EC50 [2]: 500 to 3000 nM

SMILES: CC(C)(C)Cn1cc([C@H](NS(=O)(=O)C2CC2)C(F)(F)F)c2ccc(-c3ccccc3C(F)(F)F)cc21 [Example 322, (S)—N-(2,2,2-trifluoro-1-(1-neopentyl-6-(2-(trifluoromethyl)phenyl)-1H-indol-3-yl)ethyl)cyclopropanesulfonamide]
- EC50 [1]: 500 to 3000 nM
- EC50 [2]: < 500 nM

SMILES: CC(C)Cn1cc([C@H](NS(=O)(=O)C2CC2)C(F)(F)F)c2ccc(C(C)C)cc21 [Example 333, (S)—N-(2,2,2-trifluoro-1-(1-isobutyl-6-isopropyl-1H-indol-3-yl)ethyl)cyclopropanesulfonamide]
- EC50 [1]: > 3000 nM
- EC50 [2]: < 500 nM

SMILES: CC(C)(C)Cc1cn(CCNS(=O)(=O)C2CC2)c2ccc(-c3c(Cl)cccc3Cl)cc12 [Example 214, N-(2-(5-(2,6-dichlorophenyl)-3-neopentyl-1H-indol-1-yl)ethyl)cyclopropane-sulfonamide]
- EC50 [1]: 500 to 3000 nM
- EC50 [2]: < 500 nM

SMILES: CC(C)(C)Cn1cc(CNS(=O)(=O)C2CC2)c2cc(F)c(-c3ccncc3Cl)cc21 [Compound 279]
- EC50 [1]: > 3000 nM
- EC50 [2]: < 500 nM

SMILES: CC(C)(C)Cc1cn(CCNS(=O)(=O)C2CC2)c2ccc(-c3ccccc3C(F)(F)F)cc12 [Example 212, N-(2-(3-neopentyl-5-(2-(trifluoromethyl)phenyl)-1H-indol-1-yl)ethyl)cyclopropane sulfonamide]
- EC50 [1]: 500 to 3000 nM
- EC50 [2]: < 500 nM

SMILES: Cc1c(-c2ccncc2)ccc2c(CCNS(=O)(=O)N(C)C)cn(CC(C)C)c12 [Example 200, dimethyl({2-[7-methyl-1-(2-methylpropyl)-6-(pyridin-4-yl)-1H-indol-3-yl]ethyl}sulfamoyl)amine]
- EC50 [1]: > 3000 nM
- EC50 [2]: < 500 nM

SMILES: CC(C)Cn1cc(CCNS(=O)(=O)N(C)C)c2ccccc21 [Compound 68, dimethyl({2-[1-(2-methylpropyl)-1H-indol-3-yl]ethyl}sulfamoyl)amine]
- EC50 [1]: > 3000 nM
- EC50 [2]: 500 to 3000 nM

SMILES: CC(C)Cn1cc(CCNS(=O)(=O)N(C)C)c2ccc(C(F)(F)F)cc21 [Example 105, dimethyl({2-[1-(2-methylpropyl)-6-(trifluoromethyl)-1H-indol-3-yl]ethyl}sulfamoyl)amine]
- EC50 [1]: > 3000 nM
- EC50 [2]: < 500 nM

SMILES: CC(C)Cn1cc(CCNS(=O)(=O)N(C)C)c2ccc(-c3cncnc3)cc21 [Compound 29, dimethyl({2-[1-(2-methylpropyl)-6-(pyrimidin-5-yl)-1H-indol-3-yl]ethyl}sulfamoyl)amine]
- EC50 [1]: > 3000 nM
- EC50 [2]: 500 to 3000 nM

SMILES: CC(C)Cn1cc(CCNS(=O)(=O)N(C)C)c2ccc(-c3ccccc3Cl)cc21 [Example 78, N-{2-[6-(2-chlorophenyl)-1-(2-methylpropyl)-1H-indol-3-yl]ethyl}-N,N-dimethylsulfuric diamide]
- EC50 [1]: > 3000 nM
